Source: patent US20170305857A1, “N-ACYLPIPERIDINE ETHER TROPOMYOSIN-RELATED KINASE INHIBITORS” (Pfizer Limited, priority 2014, published 2017)

The compounds below were run against T1, recombinant His-tagged cytoplasmic domains of TRKA receptor (NTRK1, PV3144, aa 441-796) (Homo sapiens, UniProt P04629) (assay: Isolated TRK enzyme assay (HTRF KinEASE-TK, PV3144 TrkA enzyme assay)). Conditions: 4 nM enzyme, 40 uM ATP, 35 min, arithmetic mean where more than one reading.
T1 construct: aa 441-796; His; purchased Invitrogen PV3144
Format: biochemical
Summary of the method: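 Enzyme and ATP were preincubated with compound for 20 min at room temperature in buffer with 10 mM MgCl and 2 mM DTT. TK-substrate-Biotin was then added (1 uM final) and the reaction run for an enzyme-specific optimized time. Phosphorylation was read by HTRF, and IC50 values came from sigmoid fits of percent inhibition normalized to plate controls, averaged over replicate readings.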

T1 sequence (P04629 441-796): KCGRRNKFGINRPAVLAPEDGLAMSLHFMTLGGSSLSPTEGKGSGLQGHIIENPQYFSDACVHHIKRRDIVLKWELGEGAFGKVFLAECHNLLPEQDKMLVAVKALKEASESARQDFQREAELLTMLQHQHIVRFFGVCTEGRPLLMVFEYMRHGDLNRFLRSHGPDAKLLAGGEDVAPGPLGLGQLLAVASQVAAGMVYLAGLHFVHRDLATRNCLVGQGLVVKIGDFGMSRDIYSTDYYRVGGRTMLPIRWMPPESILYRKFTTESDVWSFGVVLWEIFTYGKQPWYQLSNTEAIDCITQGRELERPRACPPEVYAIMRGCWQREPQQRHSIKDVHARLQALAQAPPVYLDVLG

SMILES	IC50 [nM]
N#Cc1cc(-c2ccc(OC3CCN(C(=O)Cc4ccc(OC(F)(F)F)cc4)CC3)c(C(N)=O)c2)cs1 [Example 144, 5-(5-cyanothiophen-3-yl)-2-[(1-{[4-(trifluoromethoxy)phenyl]acetyl}piperidin-4-yl)oxy]benzamide]	16.7
NC(=O)c1cc(-c2cn[nH]c2)ncc1O[C@@H]1CCN(C(=O)Cc2ccc(OC(F)(F)F)cc2)C[C@@H]1F [Example 85, 5-{[(3S,4R)-3-fluoro-1-{[4-(trifluoromethoxy)phenyl]acetyl}piperidin-4-yl]oxy}-2-(1H-pyrazol-4-yl)pyridine-4-carboxamide]	1.7
NC(=O)c1cc(-c2c[nH]cn2)ccc1OC1CCN(C(=O)Cc2ccc(OC(F)(F)F)cc2)CC1 [Example 127, 5-(1H-imidazol-4-yl)-2-[(1-{[4-(trifluoromethoxy)phenyl]acetyl}piperidin-4-yl)oxy]benzamide]	5.5
Cn1cnc(-c2ccc(O[C@H]3CCN(C(=O)Cc4ccc(OC5CC5)cc4)C[C@@H]3F)c(C(N)=O)c2)c1 [Example 42, 2-{[(3S,4S)-1-{[4-(cyclopropyloxy)phenyl]acetyl}-3-fluoropiperidin-4-yl]oxy}-5-(1-methyl-1H-imidazol-4-yl)benzamide]	3.1
NC(=O)c1cc(-c2cnn(C3CS(=O)(=O)C3)c2)cnc1O[C@H]1CCN(C(=O)Cc2ccc(OC(F)(F)F)cc2)C[C@H]1F (racemic) [Example 38, 1:1 Cis-racemic 5-[1-(1,1-dioxidothietan-3-yl)-1H-pyrazol-4-yl]-2-{[3-fluoro-1-{[4-(trifluoromethoxy)phenyl]acetyl}piperidin-4-yl]oxy}pyridine-3-carboxamide]	2
Cn1cc(-c2ccc(OC3CCN(C(=O)Cc4ccc(OC5CC5)cn4)CC3)c(C(N)=O)c2)cn1 [Example 173, 2-[(1-{[5-(cyclopropyloxy)pyridin-2-yl]acetyl}piperidin-4-yl)oxy]-5-(1-methyl-1H-pyrazol-4-yl)benzamide]	11.4
Cc1nc(-c2ccc(OC3CCN(C(=O)Cc4ccc(OC(F)(F)F)cc4)CC3)c(C(N)=O)c2)c[nH]1 [Example 146, 5-(2-methyl-1H-imidazol-4-yl)-2-[(1-{[4-(trifluoromethoxy)phenyl]acetyl}piperidin-4-yl)oxy]benzamide]	11.6
NCc1ccc(-c2ccc(OC3CCN(C(=O)Cc4ccc(OC(F)(F)F)cc4)CC3)c(C(N)=O)c2)cc1 [Example 105, 4′-(aminomethyl)-4-[(1-{[4-(trifluoromethoxy)phenyl]acetyl}piperidin-4-yl)oxy]biphenyl-3-carboxamide]	5
Cn1cc(-c2cnc(O[C@@H]3CCN(C(=O)Cc4ccc(OC(F)(F)F)cc4)C[C@@H]3F)c(C(N)=O)c2)nn1 [Example 155, 2-[((3S,4R)-3-fluoro-1-{[4-(trifluoromethoxy)phenyl]acetyl}piperidin-4-yl)oxy]-5-(1-methyl-1H-1,2,3-triazol-4-yl)pyridine-3-carboxamide]	2.45
Cn1cnc(-c2cnc(O[C@H]3CCN(C(=O)Cc4ccc(OC5CC5)cn4)C[C@@H]3F)c(C(N)=O)c2)c1 [Example 31, 2-{[(3S,4S)-1-{[5-(cyclopropyloxy)pyridin-2-yl]acetyl}-3-fluoropiperidin-4-yl]oxy}-5-(1-methyl-1H-imidazol-4-yl)pyridine-3-carboxamide]	9
NC(=O)c1cc(-c2cn[nH]c2)cnc1O[C@H]1CCN(C(=O)Cc2ccc(OC(F)(F)F)cc2)C[C@H]1F [Example 72, 2-{[(3R,4S)-3-fluoro-1-{[4-(trifluoromethoxy)phenyl]acetyl}piperidin-4-yl]oxy}-5-(1H-pyrazol-4-yl)pyridine-3-carboxamide]	1.3
Cn1cc(-c2ccc(OC3CCN(C(=O)Cc4ccc(C(C)(C)C)nc4)CC3)c(C(N)=O)c2)cn1 [Example 18, 2-({1-[(6-tert-butylpyridin-3-yl)acetyl]piperidin-4-yl}oxy)-5-(1-methyl-1H-pyrazol-4-yl)benzamide]	8.9
Cn1cc(-c2ccc(O[C@H]3CCN(C(=O)Cc4ccc(OC(F)(F)F)cc4)C[C@H]3F)c(C(N)=O)c2)cn1 [Example 75, 2-{[(3R,4S)-3-fluoro-1-{[4-{trifluoromethoxy)phenyl]acetyl}piperidin-4-yl]oxy}-5-(1-methyl-1H-pyrazol-4-yl)benzamide]	0.9
CC(N)c1ccc(-c2ccc(OC3CCN(C(=O)Cc4ccc(OC(F)(F)F)cc4)CC3)c(C(N)=O)c2)cc1 (racemic) [Example 103, Racemic 4′-(1-aminoethyl)-4-[(1-{[4-(trifluoromethoxy)phenyl]acetyl}piperidin-4-yl)oxy]biphenyl-3-carboxamide]	2.7
Cn1cc(-c2cnc(O[C@@H]3CCN(C(=O)Cc4ccc(OC(F)(F)F)cc4)C[C@@H]3F)c(C(N)=O)c2)cn1 [Example 71, 2-{[(3S,4R)-3-fluoro-1-{[4-(trifluoromethoxy)phenyl]acetyl}piperidin-4-yl]oxy}-5-(1-methyl-1H-pyrazol-4-yl)pyridine-3-carboxamide]	1.3
Cn1cc(-c2ccc(O[C@@H]3CCN(C(=O)Cc4ccc(OC(F)(F)F)cc4)C[C@@H]3F)c(C(N)=O)c2)cn1 [Example 74, 2-{[(3S,4R)-3-fluoro-1-{[4-(trifluoromethoxy)phenyl]acetyl}piperidin-4-yl]oxy}-5-(1-methyl-1H-pyrazol-4-yl)benzamide]	0.9

Second part, the compound after the results:

IC50 [nM]	SMILES
19.3	Cn1cc(-c2ccc(OC3CCN(C(=O)Nc4ccc(OC5CC5)cc4)CC3)c(C(N)=O)c2)cn1 [Example 181, 4-[2-carbamoyl-4-(1-methyl-1H-pyrazol-4-yl)phenoxy]-N-[4-(cyclopropyloxy)phenyl]piperidine-1-carboxamide]
12	NC(=O)c1cc(-c2ccc(CO)cc2)cnc1OC1CCN(C(=O)Cc2ccc(OC(F)(F)F)cc2)CC1 [Example 151, 5-[4-(hydroxymethyl)phenyl]-2-[(1-{[4-(trifluoromethoxy)phenyl]acetyl}piperidin-4-yl)oxy]pyridine-3-carboxamide]
0.9	NC(=O)c1cc(-c2cn[nH]c2)ccc1O[C@@H]1CCN(C(=O)Cc2ccc(OC(F)(F)F)cc2)C[C@@H]1F [Example 73, 2-{[(3S,4R)-3-fluoro-1-{[4-(trifluoromethoxy)phenyl]acetyl}piperidin-4-yl]oxy}-5-(1H-pyrazol-4-yl)benzamide]
6.6	NC(=O)c1cc(-c2cn(C[C@H](O)CO)cn2)ccc1OC1CCN(C(=O)Cc2ccc(OC(F)(F)F)cc2)CC1 [Example 125]
2.6	NC(=O)c1cc(-c2cn[nH]c2)cnc1O[C@@H]1CCN(C(=O)Cc2ccc(OC3CC3)cn2)C[C@@H]1F [Example 78, 2-{[(3S,4R)-1-{[5-(cyclopropyloxy)pyridin-2-yl]acetyl}-3-fluoropiperidin-4-yl]oxy}-5-(1H-pyrazol-4-yl)pyridine-3-carboxamide]
8.8	CC(N)c1ccc(-c2cnc(OC3CCN(C(=O)Cc4ccc(OC(F)(F)F)cc4)CC3)c(C(N)=O)c2)cc1 (racemic) [Example 94, Racemic 5-[4-(1-aminoethyl)phenyl]-2-[(1-{[4-(trifluoromethoxy)phenyl]acetyl}piperidin-4-yl)oxy]pyridine-3-carboxamide]
1.4	NC(=O)c1cc(-c2c[nH]cn2)cnc1O[C@H]1CCN(C(=O)Cc2ccc(OC(F)(F)F)cc2)C[C@H]1F [Example 141, 2-{[(3R,4S)-3-fluoro-1-{[4-(trifluoromethoxy)phenyl]acetyl}piperidin-4-yl]oxy}-5-(1H-imidazol-4-yl)pyridine-3-carboxamide]
17.1	NC(=O)c1cc(-c2cnn(CCO)c2)ncc1OC1CCN(C(=O)Cc2ccc(OC(F)(F)F)cc2)CC1 [Example 175, 2-[1-(2-hydroxyethyl)-1H-pyrazol-4-yl]-5-[(1-{[4-(trifluoromethoxy)phenyl]acetyl}piperidin-4-yl)oxy]pyridine-4-carboxamide]
12.7	C[C@H](O)c1ccc(-c2cnc(OC3CCN(C(=O)Cc4ccc(OC(F)(F)F)cc4)CC3)c(C(N)=O)c2)cc1 [Example 152, 5-{4-[(1S)-1-hydroxyethyl]phenyl}-2-[(1-{[4-(trifluoromethoxy)phenyl]acetyl}piperidin-4-yl)oxy]pyridine-3-carboxamide]
19.1	NC(=O)c1cc(-c2cn(CCO)nn2)ccc1OC1CCN(C(=O)Cc2ccc(OC(F)(F)F)cc2)CC1 [Example 174, 5-[1-(2-hydroxyethyl)-1H-1,2,3-triazol-4-yl]-2-[(1-{[4-(trifluoromethoxy)phenyl]acetyl}piperidin-4-yl)oxy]benzamide]
4.3	Cn1cnc(-c2cnc(O[C@@H]3CCN(C(=O)Cc4ccc(OC5CC5)cn4)C[C@@H]3F)c(C(N)=O)c2)c1 [Example 29, 2-{[(3S,4R)-1-{[5-(cyclopropyloxy)pyridin-2-yl]acetyl}-3-fluoropiperidin-4-yl]oxy}-5-(1-methyl-1H-imidazol-4-yl)pyridine-3-carboxamide]
1.5	NC(=O)c1cc(-c2cn[nH]c2)ncc1O[C@H]1CCN(C(=O)Cc2ccc(OC(F)(F)F)cc2)C[C@H]1F [Example 88, 5-{[(3R,4S)-3-fluoro-1-{[4-(trifluoromethoxy)phenyl]acetyl}piperidin-4-yl]oxy}-2-(1H-pyrazol-4-yl)pyridine-4-carboxamide]
9.9	NC(=O)c1cc(-c2cn[nH]c2)cnc1O[C@H]1CCN(C(=O)Cc2ccc(OC3CC3)cn2)C[C@@H]1F [Example 80, 2-{[(3S,4S)-1-{[5-(cyclopropyloxy)pyridin-2-yl]acetyl}-3-fluoropiperidin-4-yl]oxy}-5-(1H-pyrazol-4-yl)pyridine-3-carboxamide]
2.8	C[C@@H](N)c1ccc(-c2ccc(OC3CCN(C(=O)Cc4ccc(OC(F)(F)F)cc4)CC3)c(C(N)=O)c2)cc1 [Example 64, 4′-[(1R)-1-aminoethyl]-4-[(1-{[4-(trifluoromethoxy)phenyl]acetyl}piperidin-4-yl)oxy]biphenyl-3-carboxamide]
